Here are results for 6 compounds from patent US20220211728A1, “ALKYL-TPP COMPOUNDS FOR MITOCHONDRIA TARGETING AND ANTI-CANCER TREATMENTS” (LUNELLA BIOTECH, INC., priority 2019, published 2022).

Data set [1] deals with MCF-7 breast cancer cells. To be noted: b-TPP, identified in International Application PCT/US2018/062174; read-out: IC-50 inhibiting CSC propagation; cited from earlier work.
The subject of data set [2] is MCF-7 breast cancer cells. The data set can be described thus: mammosphere formation assay (CSC propagation) in MCF-7 cells. Type of data set: cell-based, human. To be noted: for IC50: Homo sapiens, MCF7. The protocol:
(§1) The mammosphere assay was performed as follows. A single cell suspension of MCF-7 or MDA-MB-231 cells was prepared using enzymatic (1× Trypsin-EDTA, Sigma Aldrich), and manual disaggregation (25 gauge needle). Cells were then plated at a density of 500 cells/cm^2 in mammosphere medium (DMEM-F12/B27/20-ng/ml EGF/PenStrep) in nonadherent conditions, in culture dishes coated with (2-hydroxyethylmethacrylate) (poly-HEMA, Sigma Aldrich), in the presence of treatments, were required. Cells were grown for 5 days and maintained in a humidified incubator at 37° C. at an atmospheric pressure in 5% (v/v) carbon dioxide/air. After 5 days for culture, spheres >50 μm were counted using an eye piece graticule, and the percentage of cells plated which formed spheres was calculated and is referred to as percentage mammosphere formation. Mammosphere assays were performed in triplicate and repeated three times independently.

The test system of another data set is chicken embryos. The data set can be described thus: CAM assay, embryonic tolerability. Type of data set: in vivo. The protocol:
(§2) Further evaluation of both efficacy and toxicity was performed on human breast tumors initiated from the MDA-MB-231 cell line in chicken embryos using the CAM Model available from Inovotion (La Tronche, France). […] With respect to the CAM assay, fertilized eggs were incubated at 37.5° C. with 50% relative humidity for 9 days. The graft was dropped into each egg through a small hole drilled through the eggshell into the air sac, and a 1 cm^2 window cut in the eggshell above the CAM. This grafting process was used for each egg in a test group. Because the grafting process is an invasive surgical act, some death is expected to occur during hours after the tumor graft. For the data reported herein, at least 10 eggs per test group were successfully grafted.
Embryonic tolerability of the d-TPP treatments were also quantitatively evaluated. Embryonic viability was checked daily following grating and during treatment. The number of dead embryos was also counted on the final day, to evaluate treatment-induced embryo toxicity. […] It should be appreciated by those having an ordinary level of skill in the art that toxicity should be analyzed for establishing a dosing regimen.

In data set [3] the test system is human breast tumors initiated from the MDA-MB-231 cell line. Kind of data set: CAM assay, tumor growth and metastasis. Type of data set: in vivo, chicken embryos. Here is the method:
as §2
The MDA-MB-231 tumor cell line was cultivated in DMEM medium supplemented with 10% FBS and 1% penicillin/streptomycin. After the 9-day incubation period, cells were detached with trypsin, washed with complete medium, and suspended in a graft medium. An inoculum of 1.10^6 cells was added onto the CAM of each egg, and then eggs were randomized into test groups. Tumors were detectable within one day of the graft. The negative control group was a 0.125% DMSO in PBS, and d-TPP groups for concentrations of 6.25 μM, […], were evaluated. Each egg in a group was treated 8 times per day. After 8 days of treatments, tumor growth was quantitatively evaluated. The upper portion of the CAM (with the tumor) was removed, washed in a PBS buffer, and then directly transferred in PFA for a 48-hour fixation. Tumors were then carefully cut away from normal CAM tissue and weighed. For all quantitative data relating to the chicken egg evaluation, a one-way ANOVA (with post-tests between each couple of groups) was performed with the specialized computer software Prism® (GraphPad Software). For all analyses, statistical difference between groups is made visible on graphs by the presence of stars with the following meaning: no asterisk means p>0.05; * means […]; ** means 0.01≥p>0.001; and *** means 0.001≥p. […] Consistent with the evaluations described above, the d-TPP tumor growth inhibition effect was dose-dependent.
Metastatic invasion was also quantitatively evaluated. A 1 cm^2 portion of the lower CAM was collected to evaluate the number of metastatic cells in 8 samples per group (n=8). Genomic DNA was extracted from the CAM using a commercial kit, and analyzed by qPCR with specific primers for Human Alu sequences. Calculation of Cq for each sample, mean Cq and relative amounts of metastases for each group were directly managed by the Bio-Rad® CFX Maestro software. […]

Data set [4] concerns MCF-7 cells. The data set can be described thus: Seahorse XFe96 metabolic flux analysis, extracellular acidification rate (ECAR). To be noted: MCF-7, d-TPP 50 nM to 500 nM. Type of data set: cell-based, human. Here is the method: (§3) The extracellular acidification rate (ECAR) and real-time oxygen consumption rate (OCR) assays for metabolic flux analysis were performed using the Seahorse Extracellular Flux (XFe-96) analyzer (Seahorse Bioscience). Briefly, 15,000 MCF-7 cells per well were seeded into XFe-96 well cell culture plates, and incubated overnight to allow attachment. Cells were then treated with increasing concentrations of d-TPP (50 nM+500 nM) for 24 hours. Vehicle alone (DMSO) control cells were processed in parallel. Then, cells were washed in pre-warmed XF assay media (or for OCR measurement, XF assay media supplemented with 10 mM glucose, 1 mM Pyruvate, 2 mM L-glutamine and adjusted at 7.4 pH). Cells were then maintained in 175 μL/well of XF assay media at 37 C, in a non-CO2 incubator for 1 hour. During the incubation time, 5 μL of 80 mM glucose, 9 μM oligomycin, and 1 M 2-deoxyglucose (for ECAR measurement) or 10 μM oligomycin, 9 μM FCCP, 10 μM Rotenone, 10 μM antimycin A (for OCR measurement), were loaded in XF assay media into the injection ports in the XFe-96 sensor cartridge. Data set was analyzed by XFe-96 software after the measurements were normalized by protein content (SRB). All experiments were performed three times independently.

The next data set deals with adherent MCF-7 cells. Kind of data set: xCELLigence real-time cell analysis of cell proliferation. Type of data set: cell-based, human. The protocol: The xCELLigence system was used to analyze the kinetics of d-TPP action on cell proliferation of adherent MCF-7 cells. The xCELLigence system evaluates the real-time, label-free monitoring of cell health and behavior, by measuring the electrical impedance, whose magnitude is dependent on the number of cells. Real-time cell analysis was performed for 48-hour and 72-hour treatment with d-TPP, at concentrations of 50 nM, 100 nM, and 250 nM. The control was vehicle-only. The results for the 48-hour d-TPP treatment are shown in FIGS. 8A and 8B, and FIGS. 8C and 8D show results for the 72-hour d-TPP treatment.
The xCELLigence Real-time cell analysis (RTCA) System was sourced from ACEA Biosciences Inc. The xCELLigence RTCA system provides a useful approach for the real-time monitoring of the biological status of adherent cells, by measuring the electrical impedance, expressed as a cell index (CI) value. 5000 MCF-7 cells were seeded in a 16-well plate (E-plate). 24 hours after seeding, cells were treated with vehicle or increasing concentrations of d-TPP (from 50 nM to 250 nM) for additional 48 hours or 72 hours. RTCA was performed by measuring the cell-induced electrical impedance values, which were automatically recorded every 15 min for 96 h. This approach allows the quantification of the onset and kinetics of the cellular response. Experiments were repeated three times independently, using quadruplicate samples for each condition.

Data set [5] deals with MCF-7 breast cancer cells. Kind of data set: cell viability by sulphorhodamine (SRB) assay in MCF-7 cells. Type of data set: cell-based. The settings on record: Homo sapiens, MCF7, 250 nM, 500 nM and 1 μM, read-out: reduction in cell viability. The protocol:
(§4) Cell viability was assessed in MCF-7 and hTERT-BJ1 cells by sulphorhodamine (SRB) assay, based on the measurement of cellular protein content. After treatment with d-TPP (50 nM+1 μM) for 24, 48 or 72 hours, cells were fixed with 10% trichloroacetic acid (TCA) for 1 hour in cold room, and dried overnight at room temperature. Then, cells were incubated with SRB for 15 min, washed twice with 1% acetic acid, and air dried for at least 1 hour. Finally, the protein-bound dye was dissolved in 10 mM Tris pH 8.8 solution and read using a plate reader at 540 nm.

Data set [6] has as its system normal human fibroblasts (hTERT-BJ1). The data set can be described thus: cell viability by sulphorhodamine (SRB) assay in normal fibroblasts. Type of data set: cell-based. Here is the method: as §4
Data set [7] concerns MDA-MB-231 triple negative breast cancer cells. The data set can be described thus: mammosphere formation assay (CSC propagation) in MDA-MB-231 cells. Type of data set: cell-based, human. The protocol:
as §1

Data set [8] concerns MCF-7 cells. The data set can be described thus: Seahorse XFe96 metabolic flux analysis, oxygen consumption rate (OCR). Type of data set: cell-based, human. The protocol: as §3
The mark [9] stands for this setting: Berberine chloride 10 μM with d-TPP 100 nM.

Molecules are shown by their SMILES. “Also recorded” adds a separate entry of the source. Read-outs that look alike come from different tables or passages of the source.

With `C(=CC[P+](c1ccccc1)(c1ccccc1)c1ccccc1)C[P+](c1ccccc1)(c1ccccc1)c1ccccc1` [b-TPP, 2-butene-1,4-bis-TPP], the IC50 in [1] is approximately 0.5 µM.

Turning to `O=CC[C@@H](O)[C@H](O)[C@H](O)CO` [2-DG, 2-deoxy-D-glucose], the “increase in the inhibitory effect of d-TPP alone” value in data set [2] (2-DG 10 mM with d-TPP 100 nM) is 2 fold. The “residual mammosphere formation capability” value in data set [2] (2-DG 20 mM with d-TPP 100 nM) is reported as less than 10%.

Consider `O=C(Nc1ccc([N+](=O)[O-])cc1Cl)c1cc(Cl)ccc1O` [Niclosamide], for which the “increase in efficacy of d-TPP on CSC activity” value in data set [2] (Niclosamide 250 nM with d-TPP 100 nM) is listed as approximately 2 fold; in [2] (Niclosamide 500 nM with d-TPP 100 nM), approximately 3 fold.

With `COc1ccc2cc3[n+](cc2c1OC)CCc1cc2c(cc1-3)OCO2` [Berberine chloride], the “reduction (CSC formation)” value in data set [2] (Berberine chloride 1 μM with d-TPP 100 nM) came out at 60%. For the same compound, in data set [2] (setting [9]), the “increase in efficacy of d-TPP” value was approximately 5 fold and the “inhibition of CSC formation” value is “over 80%”.

As for `CCCCCCCCCCC[P+](c1ccccc1)(c1ccccc1)c1ccccc1` [d-TPP, dodecyl-TPP], the embryo toxicity entry is reported as “resulted in mortality” with chicken embryos (higher dose); “did not exhibit toxicity” in the data set on chicken embryos (medium and low doses). In addition, the inhibition of metastasis in data set [3] (25 μM concentration) is reported as approximately 75%. Moreover, the “inhibition of tumor growth” value in data set [3] (25 sM concentration) is listed as approximately 40%. For the same compound, in data set [3] (medium (25.0 μM) and high (62.5 μM) doses), the “tumor growth (tumor weight) compared to the negative control” value is reported as “significantly inhibited”. For the same compound, the “metastatic invasion (qPCR for Alu sequences in the lower CAM) compared to the negative control” value in data set [3] (medium dose) is recorded as “metastasis regression”. The “glycolysis (ECAR)” value with MCF-7 cells [4] is “substantially and dose-dependently increased”. Moreover, the “effect on cell number (cell index)” value in the data set with adherent MCF-7 cells (MCF-7, 50 nM d-TPP, 72 h treatment) is on record as “trend of reduced cell number”. Further, the “effect on cell proliferation (cell index)” value in the data set on adherent MCF-7 cells (MCF-7, 100 nM d-TPP) was “main cytostatic effect”. The “cytotoxicity (cell index)” value with adherent MCF-7 cells (MCF-7, 250 nM d-TPP) is reported as “Cytotoxicity was present”. Moreover, the IC50 in [2] (MCF-7, read-out: concentration necessary to half CSC activity) was approximately 0.25 µM; with MCF-7 cells [8] (Homo sapiens, MCF7, MCF-7, 24 hours treatment, read-out: IC-50 basal mitochondrial respiration) it was approximately 0.25 µM. Further, the “potency in inhibiting mammosphere formation / CSC propagation compared with b-TPP (other TPP-derivatives)” value in data set [2] (MCF-7) was “twice as potent; also recorded: more than twice as potent”. For the same compound, the “reduction in mammosphere formation” value in data set [2] (MCF-7, d-TPP 50 nM and 100 nM) amounted to 20%. The “reduction in CSC propagation (mammosphere formation)” value in data set [2] (MCF-7, d-TPP 500 nM and 1 μM) was 80%. Moreover, the cytotoxicity at 0.25 µM in data set [5] (MCF-7, 24 hours) is approximately 30%; in data set [5] (MCF-7, 72 hours), approximately 80%. The “toxicity to hTERT-BJ1 cells” value in [6] (50 nM and 100 nM) was “no toxicity”. Moreover, the “cell viability of hTERT-BJ1 cells” value in [6] (250 nM, 500 nM and 1 μM) is reported as “decreased”. For the same compound, the inhibition at 1 µM in data set [7] (Homo sapiens, MDA-MB-231, d-TPP 1 μM) was approximately 80%. The “effect on CSC propagation (mammosphere formation)” value in [7] (MDA-MB-231, d-TPP 50 nM (lowest concentration tested)) is on record as “showed an inhibitory effect”. In addition, the “oxygen consumption rate (OCR)” value in the data set with MCF-7 cells [8] (MCF-7, d-TPP 50 nM) is listed as “dramatic reduction”. Besides, in the data set with MCF-7 cells [8] (MCF-7, d-TPP 50 nM to 500 nM), the ATP levels result is given as “dose-dependently depleted”.

Consider `O=C1O[C@H]([C@@H](O)CO)C(O)=C1O` [Vitamin C, Ascorbic Acid], for which the IC50 in [2] (Vitamin C separately (without d-TPP), read-out: IC-50 MCF-7 CSC propagation) is 1000 µM. For the same compound, the “inhibition of propagation of CSCs” value is “over 50%” in data set [2] (Vitamin C 250 μM in combination with d-TPP at 100 nM) and “over 70%” in data set [2] (Vitamin C 500 μM in combination with d-TPP at 100 nM). For the same compound, in data set [2] (d-TPP 100 nM), the “increase in CSC sensitivity to Vitamin C caused by d-TPP” value is given as approximately 4 fold.

As usually defined, the inhibition is the drop in the measured response relative to a control, in per cent.
